Measurements as given in PMC7024361, “Vaginal Polyelectrolyte Layer-by-Layer Films Based on Chitosan Derivatives and Eudragit® S100 for pH Responsive Release of Tenofovir” (Marine Drugs, 2020).
≈ marks a conversion by molar mass, not a printed value.

Key:
[1] = Material cytotoxicity, CellTiter Glo; assay type: cell-based; conditions: human, maximum concentration tested 1000 µg/mL
Procedure: To study cell toxicity, the materials were incubated in culture media at 37 °C and 5% CO2 for 48 h before the assay to ensure that any potential toxic component would be present in the dilutions to be tested. The cell culture was then treated with a suspension of base 5 serial dilutions of the most concentrated suspension (1000 µg/mL). Experiments were performed in lymphoblastic (MT-2) and macrophage-monocyte (THP-1) derived cell lines to evaluate toxicity on the immune cells present in vaginal or uterine mucosae, and in a uterine epithelial cell line (HEC-1A) to evaluate the potential damage to mucosal integrity (Figure 12).
Three human cell lines were used: a lymphoblastic cell line, MT-2 [65], a macrophage-monocyte derived cell line, THP-1 (ATCC® TIB-202) and a uterine/endometrial epithelial cell line, HEC-1A (ATCC® HTB-112™) (kindly provided by Maria Angeles Muñoz). All the cell lines were cultured in RPMI 1640 medium supplemented with 10 % (v/v) fetal bovine serum, 2 mM L-glutamine and […] streptomycin (all Whittaker M.A. Bio-Products, Walkerville, MD, USA) at 37 °C in a humidified atmosphere of 5 % CO2. To detach the HEC-1-A cells, the medium was removed and the flask was rinsed during 10 min with 1 to 2 mL of trypsin 0.25%—EDTA 0.03% solution. The medium was replaced every three days after cell centrifugation at 1500 rpm for 5 min.
Cell toxicity was measured using the CellTiter Glo kit (Promega, Madison, WI, USA). Cells were incubated in 96-well plates at a density of […] cells per well (MT-2 and THP-1) and 2 × 10^4 (HEC-1A) in complete medium. To assess the cytotoxic effect, cells were exposed to fresh medium containing different concentrations of lactic acid, tartaric acid, citric acid, TEC and ES100 suspensions, or the same concentration of PBS 1× as control. Experiments were performed in triplicate and the culture was maintained at 37 °C and 5% CO2 humidified atmosphere for 48 h. A standard method was followed to suspend the materials in PBS 1× [66]. After incubation for 48 h, the medium was removed from cell cultures and 50 µL of CellTiter Glo reactive was added to each well on the plate. Relative luminescence units (RLUs) were measured in a luminometer (Sirius, Berthold Detection Systems). Cytotoxic concentration 50 (CC50) values were calculated using GraphPad Prism Software (non-linear regression, log inhibitor versus response). The results of the cytotoxic assay are shown as the average of at least three individual experiments.

HIV = test system: HIV; design: method as in PMID 22964245; conditions: women; cited from earlier work
[2] = HEC-1A uterine/endometrial epithelial cells
[3] = MT-2 lymphoblastic cells, MT-2, 48 h
[4] = THP-1 macrophage-monocyte derived cells, THP1, 48 h

Row | SMILES | CC50 at 48 h [1, 2] | CC50 at 48 h [1, 3] | CC50 at 48 h [1, 4] | cervicovaginal fluid concentration that confers protection against HIV (HIV)
1 | O=C(O)CC(O)(CC(=O)O)C(=O)O [Citric acid, citric acid] | > 1000 µg/mL | > 1000 µg/mL | ~1000 µg/mL (≈ 5.2 mM) | 
2 | CC(O)C(=O)O (stereo not drawn) [Lactic acid, L(+)-Lactic acid] | > 1000 µg/mL | > 1000 µg/mL | > 1000 µg/mL | 
3 | CCOC(=O)CC(O)(CC(=O)OCC)C(=O)OCC [TEC, triethylcitrate] | > 1000 µg/mL | ~1000 µg/mL (≈ 3.62 mM) | > 1000 µg/mL | 
4 | C[C@H](Cn1cnc2c(N)ncnc21)OCP(=O)(O)O [TFV, Tenofovir] |  |  |  | 1000 ng/mL
5 | O=C(O)C(O)C(O)C(=O)O (stereo not drawn) [Tartaric acid, L(+)-Tartaric acid] | ~200 µg/mL (≈ 1.33 mM) | > 1000 µg/mL | > 1000 µg/mL | 
